Consider 19 molecules from patent publication US8258134B2, “Pyridazinone glucokinase activators” (Hoffmann-La Roche Inc., priority 2008, dated 2012).

Each structure is given as a SMILES string.

The target in the test is T1, Recombinant human liver GK1 (GST-GK) (Homo sapiens, UniProt P35557).
T1 construct: made in house; host or cells: E. coli
T1 sequence (P35557 1-466 isoform P35557-2): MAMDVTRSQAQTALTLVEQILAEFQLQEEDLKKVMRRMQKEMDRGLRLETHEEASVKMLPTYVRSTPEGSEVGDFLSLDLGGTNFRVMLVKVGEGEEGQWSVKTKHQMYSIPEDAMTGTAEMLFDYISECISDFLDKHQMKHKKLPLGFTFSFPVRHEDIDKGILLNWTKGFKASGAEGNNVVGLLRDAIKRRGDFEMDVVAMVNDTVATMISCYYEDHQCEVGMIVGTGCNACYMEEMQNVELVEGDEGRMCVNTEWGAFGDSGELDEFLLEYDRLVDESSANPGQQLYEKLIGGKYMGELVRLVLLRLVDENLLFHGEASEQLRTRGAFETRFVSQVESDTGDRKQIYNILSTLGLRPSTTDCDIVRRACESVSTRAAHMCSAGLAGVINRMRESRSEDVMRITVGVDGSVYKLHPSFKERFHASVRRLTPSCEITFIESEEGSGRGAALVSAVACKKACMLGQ
As to the kind of experiment: Glucokinase in vitro assay (G6PDH-coupled NADH generation, OD340). The class given is biochemical. Particulars: 5 mM D-glucose, 30° C., pH 7.1, 10% DMSO. In outline:
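GST-tagged recombinant GK1 expressed in E. coli, run at 30° C, pH 7.1 Hepes with 5 mM D-glucose, 1 mM ATP and 1.8 mM NAD, G6PDH-coupled. Compounds were in 10% DMSO final, with a 10 min pre-incubation before enzyme addition. OD340/min rate measured; SC1.5 is the activator concentration giving a 50% increase in activity.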
In the case of `CC(C)(O)Cn1ccc(NC(=O)[C@H](CC2CCCC2)n2ncc(Oc3ccccc3F)cc2=O)n1` [Example 19A, (S)-3-Cyclopentyl-2-[4-(2-fluoro-phenoxy)-6-oxo-6H-pyridazin-1-yl]-N-[1-(2-hydroxy-2-methyl-propyl)-1H-pyrazol-3-yl]-propionamide], the “SC1.5 average (concentration of activator that produced a 50% increase in the activity of GK)” value stood at 0.104 µM.
Consider `CC(C)(O)Cn1ccc(NC(=O)[C@H](CC2CCCC2)n2ncc(Oc3ccccc3C3CCCC3)cc2=O)n1` [Example 22A, (S)-3-Cyclopentyl-2-[4-(2-cyclopentyl-phenoxy)-6-oxo-6H-pyridazin-1-yl]-N-[1-(2-hydroxy-2-methyl-propyl)-1H-pyrazol-3-yl]-propionamide], for which the “SC1.5 average (concentration of activator that produced a 50% increase in the activity of GK)” value turned out to be 0.263 µM.
With `CC(C)C[C@@H](C(=O)Nc1ccn(CC(C)(C)O)n1)n1ncc(Oc2c(F)cccc2F)cc1=O` [Example 42A, (S)-2-[4-(2,6-Difluoro-phenoxy)-6-oxo-6H-pyridazin-1-yl]-4-methyl-pentanoic acid [1-(2-hydroxy-2-methyl-propyl)-1H-pyrazol-3-yl]-amide], the “SC1.5 average (concentration of activator that produced a 50% increase in the activity of GK)” value is 0.17 µM.
For `CC(C)(O)Cn1ccc(NC(=O)[C@H](CC2CCCC2)n2ncc(Oc3ccccc3S(C)(=O)=O)cc2=O)n1` [Example 30A, (S)-3-Cyclopentyl-N-[1-(2-hydroxy-2-methyl-propyl)-1H-pyrazol-3-yl]-2-[4-(2-methanesulfonyl-phenoxy)-6-oxo-6H-pyridazin-1-yl]-propionamide], the “SC1.5 average (concentration of activator that produced a 50% increase in the activity of GK)” value stood at 1.566 µM.
Regarding `O=C(Nc1nccs1)C(CC1CCCC1)n1ncccc1=O` (stereo not shown) [Example 79, 3-Cyclopentyl-2-(6-oxo-6H-pyridazin-1-yl)-N-thiazol-2-yl-propionamide], the “SC1.5 average (concentration of activator that produced a 50% increase in the activity of GK)” value was 14.605 µM.
As for `CN(c1ccccc1)c1cnn(C(CC2CCCC2)C(=O)Nc2ccn(CC(C)(C)O)n2)c(=O)c1` (stereo not shown) [Example 77, 3-Cyclopentyl-N-[1-(2-hydroxy-2-methyl-propyl)-1H-pyrazol-3-yl]-2-[4-(methyl-phenyl-amino)-6-oxo-6H-pyridazin-1-yl]-propionamide], the figure is 21.07 µM; as for `CC(C)(O)Cn1ccc(NC(=O)C(CC2CCCC2)n2ncc(Oc3ccccc3N3CCCCC3)cc2=O)n1` (stereo not shown) [Example 27, 3-Cyclopentyl-N-[1-(2-hydroxy-2-methyl-propyl)-1H-pyrazol-3-yl]-2-[6-oxo-4-(2-piperidin-1-yl-phenoxy)-6H-pyridazin-1-yl]-propionamide], 2.385 µM; as for `O=C(Nc1ccn(C[C@H](O)CO)n1)[C@@H](CC1CCCC1)n1ncc(Oc2c(F)cccc2F)cc1=O` [Example 65B, (R)-3-Cyclopentyl-2-[4-(2,6-difluoro-phenoxy)-6-oxo-6H-pyridazin-1-yl]-N-[1-((S)-2,3-dihydroxy-propyl)-1H-pyrazol-3-yl]-propionamide], 3.148 µM.
Regarding `CCC(CC)CC(C(=O)Nc1ccn(CC(C)(C)O)n1)n1ncc(Oc2c(F)cccc2F)cc1=O` (stereo not shown) [Example 52, 2-[4-(2,6-Difluoro-phenoxy)-6-oxo-6H-pyridazin-1-yl]-4-ethyl-hexanoic acid [1-(2-hydroxy-2-methyl-propyl)-1H-pyrazol-3-yl]-amide], the “SC1.5 average (concentration of activator that produced a 50% increase in the activity of GK)” value came out at 0.456 µM.
Under `COC(=O)c1ccc(NC(=O)C(CC2CCCC2)n2ncc(Oc3cccc4c3CCCC4)cc2=O)nc1` (stereo not shown) [Example 67, 6-{3-Cyclopentyl-2-[6-oxo-4-(5,6,7,8-tetrahydro-naphthalen-1-yloxy)-6H-pyridazin-1-yl]-propionylamino}-nicotinic acid methyl ester] stands 0.132 µM; under `O=C(O)c1ccc(NC(=O)[C@@H](CC2CCCC2)n2ncc(Oc3c(F)cccc3F)cc2=O)nc1` [Example 73B, 6-{(R)-3-Cyclopentyl-2-[4-(2,6-difluoro-phenoxy)-6-oxo-6H-pyridazin-1-yl]-propionylamino}-nicotinic acid], 0.507 µM; under `CC(C)CC(C(=O)Nc1ccn(C[C@@H](O)CO)n1)n1ncc(Oc2cccc(C(F)(F)F)c2Cl)cc1=O` (stereo partly drawn) [Example 126, 2-[4-(2-Chloro-3-trifluoromethyl-phenoxy)-6-oxo-6H-pyridazin-1-yl]-4-methyl-pentanoic acid [1-((R)-2,3-dihydroxy-propyl)-1H-pyrazol-3-yl]-amide], 1.221 µM.
For `O=C(Nc1ccn(CCO)n1)C(CC1CCC1)n1ncc(Oc2c(F)cccc2F)cc1=O` (stereo not shown) [Example 55, 3-Cyclobutyl-2-[4-(2,6-difluoro-phenoxy)-6-oxo-6H-pyridazin-1-yl]-N-[1-(2-hydroxy-ethyl)-1H-pyrazol-3-yl]-propionamide], the “SC1.5 average (concentration of activator that produced a 50% increase in the activity of GK)” value came to 0.468 µM.
Take `CCC(CC)CC(C(=O)Nc1ccn(C[C@@H](O)CO)n1)n1ncc(Oc2c(F)cccc2F)cc1=O` (stereo partly drawn) [Example 64, 2-[4-(2,6-Difluoro-phenoxy)-6-oxo-6H-pyridazin-1-yl]-4-ethyl-hexanoic acid [1-((R)-2,3-dihydroxy-propyl)-1H-pyrazol-3-yl]-amide]: the “SC1.5 average (concentration of activator that produced a 50% increase in the activity of GK)” value came to 0.551 µM.
Regarding `CC(C)(O)Cn1ccc(NC(=O)C(CC2CCCC2)n2ncc(Cc3c(F)cccc3F)cc2=O)n1` (stereo not shown) [Example 48, 3-Cyclopentyl-2-[4-(2,6-difluoro-benzyl)-6-oxo-6H-pyridazin-1-yl]-N-[1-(2-hydroxy-2-methyl-propyl)-1H-pyrazol-3-yl]-propionamide], the “SC1.5 average (concentration of activator that produced a 50% increase in the activity of GK)” value worked out at 1.495 µM.
Take `O=C(Nc1ccn(C[C@@H](O)CO)n1)C(CC1CCCC1)n1ncc(Oc2cccc3[nH]ccc23)cc1=O` (stereo partly drawn) [Example 96, 3-Cyclopentyl-N-[1-((R)-2,3-dihydroxy-propyl)-1H-pyrazol-3-yl]-2-[4-(1H-indol-4-yloxy)-6-oxo-6H-pyridazin-1-yl]-propionamide]: the “SC1.5 average (concentration of activator that produced a 50% increase in the activity of GK)” value came out at 0.067 µM.
With `CC(C)(O)Cn1ccc(NC(=O)C(CC2CCCC2)n2ncc(Oc3ccc(F)cc3F)cc2=O)n1` (stereo not shown) [Example 32, 3-Cyclopentyl-2-[4-(2,4-difluoro-phenoxy)-6-oxo-6H-pyridazin-1-yl]-N-[1-(2-hydroxy-2-methyl-propyl)-1H-pyrazol-3-yl]-propionamide], the “SC1.5 average (concentration of activator that produced a 50% increase in the activity of GK)” value came to 0.745 µM.
As for `CC(C)(O)Cn1ccc(NC(=O)C(CC2CCCC2)n2ncc(Cc3cccc(C(F)(F)F)c3)cc2=O)n1` (stereo not shown) [Example 47, 3-Cyclopentyl-N-[1-(2-hydroxy-2-methyl-propyl)-1H-pyrazol-3-yl]-2-[6-oxo-4-(3-trifluoromethyl-benzyl)-6H-pyridazin-1-yl]-propionamide], the figure is 1.366 µM.
For `O=C(Nc1ccn(C[C@@H](O)CO)n1)C(CC1CCCC1)n1ncc(Oc2ccccc2CCO)cc1=O` (stereo partly drawn) [Example 101, 3-Cyclopentyl-N-[1-((R)-2,3-dihydroxy-propyl)-1H-pyrazol-3-yl]-2-{4-[2-(2-hydroxy-ethyl)-phenoxy]-6-oxo-6H-pyridazin-1-yl}-propionamide], the “SC1.5 average (concentration of activator that produced a 50% increase in the activity of GK)” value was 0.732 µM.
